The source of these data is PMC6480038, “In Vitro and In Silico Acetylcholinesterase Inhibitory Activity of Thalictricavine and Canadine and Their Predicted Penetration across the Blood-Brain Barrier” (Molecules, 2019).

Data set [1] relates to AChE (red blood cell ghosts). As to conditions: earlier screening, 25 °C, red blood cell ghosts as AChE source; cited from earlier work.
A further data set in a line: in vitro. As to conditions: pig, PAMPA, pH 7.4. (In general: PAMPA measures passive passage across an artificial lipid membrane.)
The next data set concerns the target T1, recombinant hAChE (Homo sapiens, UniProt P22303).
T1 construct: purchased Sigma-Aldrich (Prague, Czech Republic)
The data set is described as follows: Kinetic study of hAChE inhibition. As to conditions: for type of inhibition: nonlinear regression with sum-of-squares F-test, p < 0.05; for Ki: nonlinear regression, ATCh 156–1250 µM. Format: biochemical. From the text: The mode of interaction of the hAChE inhibition was elucidated for 1 and 2 using a kinetic study in order to gain information about the mode of inhibition and the binding site of the isolated alkaloids. Recombinant hAChE was used in this kinetic analysis of 1 and 2. […] The type of the inhibition mechanism was clarified by a nonlinear regression analysis. The results computed for each model type of inhibition (competitive, non-competitive, uncompetitive and mixed) were compared with the sum-of-squares F-test.
The kinetic study of hAChE inhibition was performed by using Ellman’s method (described above). […] Reactions were performed in triplicate. Vmax and Km values, respectively, of the Michaelis-Menten kinetics and Ki were calculated by non-linear regression from the substrate velocity curves. Linear regression was used for calculation of Lineweaver-Burk plots. All calculations were performed using the GraphPad Prism software.

The conditions of data set [2]: Table S1, predictive penetration into the CNS.
The target in data set [3] is T2, human plasma butyrylcholinesterase (hBChE) (Homo sapiens, UniProt P06276).
T2 construct: Recombinant hAChE and plasma hBChE were used as sources of cholinesterases; purchased Sigma-Aldrich (Prague, Czech Republic); host or cells: human plasma
The data set is described as follows: hBChE inhibition, modified Ellman's method. In kind it is biochemical. As to conditions: BTCh substrate, pH 7.4, 37 °C, mean ± SEM of three measurements. An excerpt:
(§1) Human recombinant acetylcholinesterase (hAChE; EC 3.1.1.7), human plasma butyrylcholinesterase (hBChE; EC 3.1.1.8), 5,5′-dithiobis(2-nitrobenzoic acid) (Ellman’s reagent, DTNB), phosphate buffer (PB, pH 7.4), dimethyl sulfoxide (DMSO), acetylthiocholine (ATCh), and butyrylthiocholine (BTCh) were purchased from Sigma-Aldrich (Prague, Czech Republic). Polystyrene Nunc 96-well microplates with flat bottom shape (ThermoFisher Scientific, Waltham, MA, USA) were utilized for measuring purposes of cholinesterase assays and the kinetic inhibition study.
(§2) The hAChE and hBChE inhibitory activity of the tested compounds was determined using a modified Ellman’s method. All the assays were carried out in 0.1 M KH2PO4/K2HPO4 buffer, pH 7.4. Enzyme solutions were prepared at an activity of 2.0 units/mL in 2 mL aliquots. The assay medium ([…]) consisted of 40 µL of 0.1 M phosphate buffer (pH 7.4), 20 µL of 0.01 M DTNB, 10 µL of enzyme, and 20 µL of 0.01 M substrate (ATCh iodide solution). […] The reaction started by addition of 20 µL of the substrate (ATCh for hAChE, BTCh for hBChE). […] Each concentration was assayed in triplicate.

The target of data set [4] is T3, human recombinant acetylcholinesterase (hAChE) (Homo sapiens, UniProt P22303).
T3 construct: purchased Sigma-Aldrich (Prague, Czech Republic)
In words: biochemical. Conditions: for SI (selectivity index for hAChE): ratio IC50 hBChE / IC50 hAChE; for IC50: recombinant hAChE, ATCh substrate, pH 7.4, 37 °C, mean ± SEM of three measurements.
Excerpt: as §1, §2

For data set [5], the system named is selected human carcinoma and non-carcinoma cells. Conditions: read-out: cytotoxicity IC50; cited from earlier work.

T1 sequence (P22303 32-614): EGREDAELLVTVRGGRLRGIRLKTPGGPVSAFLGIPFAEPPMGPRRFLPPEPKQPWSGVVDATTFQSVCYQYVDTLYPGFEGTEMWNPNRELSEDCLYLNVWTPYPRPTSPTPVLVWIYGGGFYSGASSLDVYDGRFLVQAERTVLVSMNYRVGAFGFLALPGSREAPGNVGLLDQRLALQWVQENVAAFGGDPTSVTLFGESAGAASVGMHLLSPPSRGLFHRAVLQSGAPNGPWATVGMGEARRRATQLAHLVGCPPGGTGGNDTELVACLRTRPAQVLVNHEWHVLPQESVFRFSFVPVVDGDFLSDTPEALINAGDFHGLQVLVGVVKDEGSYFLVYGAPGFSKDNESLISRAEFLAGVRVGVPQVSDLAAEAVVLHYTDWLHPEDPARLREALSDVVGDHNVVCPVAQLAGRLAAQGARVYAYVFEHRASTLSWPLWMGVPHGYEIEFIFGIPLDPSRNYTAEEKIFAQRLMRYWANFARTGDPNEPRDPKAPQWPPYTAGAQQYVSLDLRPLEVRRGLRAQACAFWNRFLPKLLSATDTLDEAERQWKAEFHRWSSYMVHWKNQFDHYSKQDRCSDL
T3 sequence (P22303 32-614): as above
T2 sequence (P06276 29-602): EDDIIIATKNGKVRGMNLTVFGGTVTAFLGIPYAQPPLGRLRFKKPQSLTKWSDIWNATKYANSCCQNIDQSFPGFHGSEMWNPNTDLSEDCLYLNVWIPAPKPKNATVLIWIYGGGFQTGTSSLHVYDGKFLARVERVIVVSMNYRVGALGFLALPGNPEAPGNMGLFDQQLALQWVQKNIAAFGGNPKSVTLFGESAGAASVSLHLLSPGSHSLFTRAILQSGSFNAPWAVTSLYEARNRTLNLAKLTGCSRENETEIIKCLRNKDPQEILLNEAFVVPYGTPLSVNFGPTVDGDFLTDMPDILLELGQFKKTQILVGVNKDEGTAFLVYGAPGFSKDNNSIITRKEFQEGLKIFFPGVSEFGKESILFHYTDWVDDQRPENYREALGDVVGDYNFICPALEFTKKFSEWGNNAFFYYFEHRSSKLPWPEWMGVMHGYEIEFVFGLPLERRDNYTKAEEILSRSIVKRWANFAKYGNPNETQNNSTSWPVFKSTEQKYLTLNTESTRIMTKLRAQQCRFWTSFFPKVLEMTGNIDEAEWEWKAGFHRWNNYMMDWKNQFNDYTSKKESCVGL

By Papp is commonly meant the rate of passage across a membrane or cell layer, normalised by area and donor concentration. Usually Ki stands for the equilibrium dissociation constant of an inhibitor or competing ligand from its target. Broadly, the IC50 is the concentration needed to halve the response being measured. As for `COc1ccc2c(c1OC)CN1CCc3cc4c(cc3[C@H]1C2)OCO4` [Compound 2, (+)-canadine], the “IC50 value for AChE” value in data set [1] is “low micromolar range”. The Papp in “in vitro” is 5 ± 0.3 ×10⁻⁶ cm/s. Moreover, at recombinant hAChE, the type of inhibition result is recorded as “competitive” and the Ki came out at 129 ± 44 nM. The PAMPA-BBB prediction entry in data set [2] is given as “CNS +”. In addition, the IC50 in data set [3] is over 100000 nM. In data set [4], the “SI (selectivity index for hAChE)” value is given as over 143 and the IC50 is 700 ± 70 nM. In addition, the IC50 in data set [5] was over 10000 nM.

The molecule `Cn1c(=O)c2c(ncn2C)n(C)c1=O` [caffeine, reference compound] showed a Papp in the data set “in vitro” of 0.3 ×10⁻⁶ cm/s.

In the data set “in vitro”, `COc1ccc2c(c1OC)CN1CCc3cc4c(cc3[C@H]1[C@H]2C)OCO4` [Compound 1, (+)-thalictricavine] displayed an apparent permeability coefficient (Papp) of 2.5 ± 0.1 ×10⁻⁶ cm/s. The type of inhibition entry on recombinant hAChE is recorded as “competitive”. The Ki on recombinant hAChE is 174 ± 56.9 nM. The IC50 was over 100000 nM in data set [3], 380 ± 50 nM in data set [4] and over 10000 nM in data set [5]. The “SI (selectivity index for hAChE)” value in data set [4] is listed as over 263.
